Experimental data taken from PMC7054748, “The identification and characterisation of autophagy inhibitors from the published kinase inhibitor sets” (Biochemical Journal, 2020).
Values joined by “and” are separate entries in the source; they are usually repeats but may differ in a detail not shown here. Equal values may be shown once.

What was measured:
AMPK α1β2ɣ1 = AMPK α1β2ɣ1 (Homo sapiens, UniProt O43741+P54619+Q13131); test: AMPK ADP Hunter Plus kinase activity assay
PI3Kδ = test system: PI3Kδ; set-up: method as in ChEMBL database; conditions: statement in discussion on published selectivity; ref ChEMBL database; cited from earlier work
LC3 flux in U2OS cells = test: Autophagic flux: LC3-II western blot with/without BafA1 in U2OS cells; assay type: cell-based, human; conditions: U2OS
Method: (§1) U2OS (human osteosarcoma-derived) cells were cultured in DMEM supplemented with 10% foetal bovine serum, 100 U/ml Penicillin and […] L-glutamine. Cells were pre-treated with compounds at the indicated concentrations for 60 min followed by treatments with EBSS or EBSS combined with/without 50 nM Bafilomycin A1 (Enzo Life Sciences) for a further 60 or 120 min with/without inhibitors, as indicated in figures/figure legends.
(§2) Prior to western blot analysis, cells were washed twice in ice-cold PBS and lysed in buffer containing 50 mM HEPES pH 7.4, 150 mM NaCl, 1 mM EDTA, 10% Glycerol, 0.5% NP-40, 1 mM DTT, supplemented with phosphatase inhibitors (1.15 mM sodium molybdate, 4 mM sodium tartrate, 0.01 M β-glycerophosphate, 1 mM sodium fluoride, 1 mM sodium orthovanadate) and protease inhibitor tablets (Roche) according to manufacturer's instructions. Lysates were then spun at 20 000×g for 10 min and the supernatant was collected for protein content estimation using Protein Assay Dye Reagent Concentrate from Bio-Rad. 4× LDS was added to the lysate (final dilution 1×) prior to heating at 95°C for 5 min. Electrophoresis and transfer to PVDF membranes was performed using standard protocols. Membranes were blocked in 5% milk in TBS-T prior to incubation with primary antibodies (in 5% milk/TBS-T for ULK1, pS555 (human S556) ULK1, pS757 (human S758) ULK1, pS318-ATG13, ATG13, and in 5% BSA/TBS-T for LC3 and α-Tubulin) under rotation overnight at 4°C followed by washes in TBS-T and incubation with HRP-conjugated secondary antibodies (in 5% milk in TBS-T) for 60 min at room temperature. Membranes were washed in TBS-T before application of ECL reagent (GE healthcare) and development on hypersensitive X-ray films (GE healthcare) (Figures 5A, 6C and Supplementary Figure S7C) or using BIO-RAD Clarity^TM western blotting substrate (Supplementary Figure S6C and Supplementary Figure S7A) and a BIO-RAD ChemiDoc^TM imaging system.
(§3) Quantification of western blots was performed with band densitometry analysis using ImageJ. Quantification of LC3 puncta was performed using either the ITCN plugging in ImageJ or Volocity. One-way or two-way Anova (using GraphPad Prism) followed by a post-hoc test, was used for statistical analysis of western blots and immunofluorescence as indicated in figure legends.

VPS34 = VPS34 (Homo sapiens, UniProt Q8NEB9); test: VPS34 ADP Hunter Plus kinase activity assay
AMPK (ULK1 pS556) = test: Upstream AMPK activity: ULK1 pS556 western blot in U2OS cells; assay type: cell-based, human; conditions: 100 nM (VPS34-IN1 500 nM), 60 min pre-treatment, ± EBSS 60 min
Method: as §1
as §2, with “Lysates” for “Prior to western blot analysis, cells were washed twice in ice-cold PBS and lysed in buffer containing 50 mM HEPES pH 7.4, 150 mM NaCl, 1 mM EDTA, 10% Glycerol, 0.5% NP-40, 1 mM DTT, supplemented with phosphatase inhibitors (1.15 mM sodium molybdate, 4 mM sodium tartrate, 0.01 M β-glycerophosphate, 1 mM sodium fluoride, 1 mM sodium orthovanadate) and protease inhibitor tablets (Roche) according to manufacturer's instructions. Lysates”
as §3

mTOR (ULK1 pS758) = test: Upstream mTOR activity: ULK1 pS758 western blot in U2OS cells; assay type: cell-based, human; conditions: 100 nM (VPS34-IN1 500 nM), 60 min pre-treatment, ± EBSS 60 min
Method: as §1
as §2, with “Lysates” for “Prior to western blot analysis, cells were washed twice in ice-cold PBS and lysed in buffer containing 50 mM HEPES pH 7.4, 150 mM NaCl, 1 mM EDTA, 10% Glycerol, 0.5% NP-40, 1 mM DTT, supplemented with phosphatase inhibitors (1.15 mM sodium molybdate, 4 mM sodium tartrate, 0.01 M β-glycerophosphate, 1 mM sodium fluoride, 1 mM sodium orthovanadate) and protease inhibitor tablets (Roche) according to manufacturer's instructions. Lysates”
as §3

ULK1 = biological target: T1, ULK1 (Homo sapiens, UniProt O75385); test: ULK1 ADP Hunter Plus kinase activity assay; assay type: biochemical; conditions: resynthesized samples; mean potency in parenthesis, n = 5; read-out: IC50 against ULK1 (converted)
T1 construct: purchased MRC PPU Reagents and Services, Dundee, Scotland
T1 sequence (O75385 1-1050): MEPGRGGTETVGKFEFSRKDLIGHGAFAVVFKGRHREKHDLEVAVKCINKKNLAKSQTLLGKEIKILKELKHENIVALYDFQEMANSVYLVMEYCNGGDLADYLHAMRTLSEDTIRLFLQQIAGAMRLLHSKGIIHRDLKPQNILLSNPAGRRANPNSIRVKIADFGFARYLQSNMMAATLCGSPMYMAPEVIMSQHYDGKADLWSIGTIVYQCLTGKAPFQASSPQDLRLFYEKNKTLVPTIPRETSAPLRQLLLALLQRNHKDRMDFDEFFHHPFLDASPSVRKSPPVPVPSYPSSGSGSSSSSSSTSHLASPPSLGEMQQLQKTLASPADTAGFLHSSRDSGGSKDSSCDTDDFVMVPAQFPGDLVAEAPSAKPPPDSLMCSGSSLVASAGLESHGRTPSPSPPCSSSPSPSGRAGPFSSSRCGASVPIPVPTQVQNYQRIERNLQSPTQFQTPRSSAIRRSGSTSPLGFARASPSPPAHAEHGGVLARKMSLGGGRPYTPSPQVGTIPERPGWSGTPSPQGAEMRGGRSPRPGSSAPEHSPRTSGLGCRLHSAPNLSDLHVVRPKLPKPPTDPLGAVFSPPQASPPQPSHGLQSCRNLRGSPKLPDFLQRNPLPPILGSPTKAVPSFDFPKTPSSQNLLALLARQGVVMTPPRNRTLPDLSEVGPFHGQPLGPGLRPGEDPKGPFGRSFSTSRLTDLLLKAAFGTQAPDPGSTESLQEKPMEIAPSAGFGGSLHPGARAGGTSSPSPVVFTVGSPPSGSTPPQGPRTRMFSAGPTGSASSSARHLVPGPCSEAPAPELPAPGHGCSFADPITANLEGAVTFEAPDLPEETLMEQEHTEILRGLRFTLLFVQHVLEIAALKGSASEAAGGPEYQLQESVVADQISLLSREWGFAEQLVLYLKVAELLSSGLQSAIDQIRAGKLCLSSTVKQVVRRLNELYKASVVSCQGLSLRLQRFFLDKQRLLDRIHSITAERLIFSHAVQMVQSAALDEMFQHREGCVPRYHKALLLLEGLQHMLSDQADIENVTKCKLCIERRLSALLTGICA

VPS34 (WIPI2 puncta) = test: Cellular VPS34 activity: WIPI2 puncta immunofluorescence in U2OS cells; assay type: cell-based, human
Method: as §1
Prior to immunofluorescence, cells were grown on glass coverslips to ∼60% confluency. Cells were washed in PBS prior to fixation with 3.7% PFA/10 mM HEPES pH 7.0 at room temperature for 20 min. PFA was quenched using DMEM/10 mM HEPES pH 7.0/0.02% NaN3, followed by permeabilisation with 0.2% NP-40 in PBS for 5 min, followed by blocking with 1% BSA/PBS/0.02% NaN3. Primary antibody incubation was at room temperature for 60 min, followed by two 10-minute washes, then fluorescent secondary antibody incubation for 30 min and further washes (all in blocking buffer) before mounting onto glass slides. A wide field Nikon TS microscope was used for image capturing.
as §3

Chain of VPS34 (Q8NEB9 whole entry): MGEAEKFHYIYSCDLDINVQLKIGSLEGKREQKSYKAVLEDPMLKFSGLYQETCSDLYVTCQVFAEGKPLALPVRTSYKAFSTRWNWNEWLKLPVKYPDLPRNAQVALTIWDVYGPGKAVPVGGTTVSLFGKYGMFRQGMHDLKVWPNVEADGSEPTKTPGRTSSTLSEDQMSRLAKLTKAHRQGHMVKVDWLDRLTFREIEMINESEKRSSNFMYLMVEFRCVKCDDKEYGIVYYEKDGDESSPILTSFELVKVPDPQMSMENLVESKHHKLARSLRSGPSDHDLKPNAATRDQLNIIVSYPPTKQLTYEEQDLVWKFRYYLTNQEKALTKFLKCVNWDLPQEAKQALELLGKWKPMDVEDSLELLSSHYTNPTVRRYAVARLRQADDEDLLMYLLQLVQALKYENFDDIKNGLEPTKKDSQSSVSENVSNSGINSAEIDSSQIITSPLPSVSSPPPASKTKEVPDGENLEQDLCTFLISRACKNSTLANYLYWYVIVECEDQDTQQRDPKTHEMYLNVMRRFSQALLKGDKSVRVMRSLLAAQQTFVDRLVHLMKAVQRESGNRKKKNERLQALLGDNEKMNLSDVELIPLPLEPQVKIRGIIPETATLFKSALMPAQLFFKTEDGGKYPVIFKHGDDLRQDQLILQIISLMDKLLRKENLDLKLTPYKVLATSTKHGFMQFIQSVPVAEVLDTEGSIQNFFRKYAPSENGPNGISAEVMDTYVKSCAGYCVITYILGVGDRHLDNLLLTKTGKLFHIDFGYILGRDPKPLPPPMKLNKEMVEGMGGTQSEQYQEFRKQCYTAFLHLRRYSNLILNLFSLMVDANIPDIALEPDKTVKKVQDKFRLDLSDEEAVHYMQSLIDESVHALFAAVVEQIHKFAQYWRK
Chain of AMPK α1β2ɣ1 (Q13131 whole entry): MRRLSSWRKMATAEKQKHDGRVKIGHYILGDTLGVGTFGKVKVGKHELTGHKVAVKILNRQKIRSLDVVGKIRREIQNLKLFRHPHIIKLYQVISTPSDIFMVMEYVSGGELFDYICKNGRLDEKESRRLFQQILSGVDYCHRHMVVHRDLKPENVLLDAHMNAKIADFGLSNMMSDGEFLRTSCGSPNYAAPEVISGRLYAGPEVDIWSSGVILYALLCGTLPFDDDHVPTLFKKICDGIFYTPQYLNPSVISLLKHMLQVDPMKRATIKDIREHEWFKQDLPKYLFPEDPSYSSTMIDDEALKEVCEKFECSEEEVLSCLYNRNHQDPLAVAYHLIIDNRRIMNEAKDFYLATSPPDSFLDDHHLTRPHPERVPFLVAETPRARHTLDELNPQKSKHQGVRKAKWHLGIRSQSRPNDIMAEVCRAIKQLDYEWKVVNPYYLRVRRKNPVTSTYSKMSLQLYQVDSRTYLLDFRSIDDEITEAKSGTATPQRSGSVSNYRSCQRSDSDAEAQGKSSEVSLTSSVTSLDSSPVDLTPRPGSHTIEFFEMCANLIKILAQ
Chain of AMPK α1β2ɣ1 (O43741 whole entry partner): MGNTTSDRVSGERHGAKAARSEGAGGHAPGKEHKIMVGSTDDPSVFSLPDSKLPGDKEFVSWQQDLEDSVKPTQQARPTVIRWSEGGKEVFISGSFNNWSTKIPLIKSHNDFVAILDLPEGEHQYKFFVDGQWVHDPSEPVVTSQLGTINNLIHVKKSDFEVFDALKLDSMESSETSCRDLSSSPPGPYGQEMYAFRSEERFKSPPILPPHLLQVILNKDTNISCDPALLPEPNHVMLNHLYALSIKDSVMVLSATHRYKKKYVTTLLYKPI
Chain of AMPK α1β2ɣ1 (P54619 whole entry partner): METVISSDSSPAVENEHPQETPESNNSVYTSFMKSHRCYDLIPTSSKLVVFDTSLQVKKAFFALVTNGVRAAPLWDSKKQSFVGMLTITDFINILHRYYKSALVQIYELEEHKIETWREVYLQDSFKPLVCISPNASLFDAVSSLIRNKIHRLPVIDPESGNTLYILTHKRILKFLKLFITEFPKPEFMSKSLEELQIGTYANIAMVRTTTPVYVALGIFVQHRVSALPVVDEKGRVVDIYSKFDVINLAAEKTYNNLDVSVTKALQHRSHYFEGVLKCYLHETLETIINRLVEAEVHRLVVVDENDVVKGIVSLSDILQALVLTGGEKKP

- IC50 (AMPK α1β2ɣ1): > 100000 nM
- IC50 (VPS34; IC50 against VPS34, resynthesized samples, mean potency in parenthesis, n = 5): 8.6 nM and 9 nM
- IC50 (VPS34; pIC50 against VPS34, original PKIS samples, concentration-dependent retest of screen hits): < 1000 nM
- IC50 (VPS34; pIC50 against VPS34, resynthesized samples, 50 µM ATP (KM app), mean ± SD, n = 5): 8.51 nM
- Mechanism of inhibition of VPS34 with respect to ATP (VPS34; varying ATP below 200 µM, Michaelis–Menten and Lineweaver–Burk plots): primarily ATP competitive inhibition
- Mechanism of inhibition of VPS34 with respect to PI:PS (VPS34; varying PI:PS below 12 µM): clear non-competitive inhibition
- IC50 (ULK1): > 100000 nM
Compound: O=c1cc(N2CCOCC2)nc2n(Cc3cccc(Cl)c3Cl)c(C3CC3)nn12 [GSK2358994A]
- Potency against PI3Kδ (PI3Kδ): potent against PI3Kδ
- Effect on LC3 flux under EBSS starvation (LC3 flux in U2OS cells; 100 nM, 60 min pre-treatment then 60 min EBSS): significantly reduced LC3 flux
- Concentration blocking EBSS-induced autophagy (LC3) flux (LC3 flux in U2OS cells; EBSS + 50 nM BafA1, as low as, greater effect at 100 nM): ≤ 10 nM
- Effect on AMPK activity (pS556 ULK1) (AMPK (ULK1 pS556)): unaffected
- Effect on mTORC1 activity (pS758 ULK1) (mTOR (ULK1 pS758)): unaffected
- Effect on EBSS-induced WIPI2 puncta (VPS34 (WIPI2 puncta); 100 nM, 60 min pre-treatment then 60 min EBSS, vs EBSS only): significantly reduced
- Concentration working in cells (WIPI2 puncta reduction) (VPS34 (WIPI2 puncta); EBSS, as low as): ≤ 100 nM
